# Laboratory results published in patent US9695175B2, “Highly selective c-Met inhibitors as anticancer agents” (Crown Bioscience Inc. (Taiwan), priority 2012, dated 2017).
# Legend:
# [1] = biological target: c-Met kinase (1038-1346AA) (Homo sapiens (Human), UniProt P08581); experiment: c-Met in vitro kinase assay (Lance Ultra ULight-TK); type: biochemical; details: c-Met kinase 12.5 nM, ATP 2.5 uM, 30° C.; read-out: c-Met Enzyme IC50
# Experimental: c-Met In Vitro Kinase Assay [Method] Use Lance@Ultra Ulight™-TK test kits from PerKinElmer to evaluate the inhibition of c-Met kinase by the compounds [Instrument] ENVISION plate reader of PerKinElmer […] Then ATP (final concentration 2.5 uM) and kinase substrate (final concentration 50 nM) are added. […] After 1 hr, the plate is read at 615 nm and 665 nm. The ratio of […] at 665 nm and 615 nm is calculated and used for the data analysis as follows. This assay has a Minimum Significant Ratio (MSA) of 2-3. [Samples] All exampled compounds and Crizotinib as the positive control [Data Analysis] Background—the ratio of 665 nm/615 nm (no enzyme):0.003285 • Max—the ratio of 665 nm/615 nm (no test compound):0.075356 [formula] [Software] Use CBIS data analysis software to calculate IC50 values
# [2] = biological target: c-Met protein in S114 cells (Homo sapiens (Human), UniProt P08581); experiment: S114 cell-based ELISA, phosphorylation of c-Met protein; details: 30 min compound incubation, phospho-c-Met ELISA
# Experimental: Cell-Based ELISA [Method] Use ELISA to measure the phosphorylation of c-Met protein in […] cells [Instrument] ENVISION plate reader of PerKinElmer […] [Procedure] […] cells are cultured in DMEM medium (containing 10% FBS). When cells reach 80% confluency, they are collected by trypsinization and centrifugation at 800 rpm for 5 min. The cells are re-suspended in DMEM and adjusted to a density of 500,000 cells/mL. A 96-well plate is pretreated with a solution of Firbronectin in PBS (5 μg/mL) at 100 μL per well for 2 hr. The cell suspension is split into the 96-well culture plate at 100 uL per well and incubated (37° C., 5% CO2) overnight. The capture antibody is diluted with 1/2 Tris-ammonium bicarbonate buffer (1:1000) and transferred into a 96-well absorption plate (70 μL per well) at 4° C. overnight. The solution is discarded and the plate is washed with blocking buffer, followed by adding blocking buffer (150 μL per well), and kept at room temperature for 1 hr. The medium in the 96-well culture plate is discarded and the plate is washed with DMEM (without FBS). Then 80 μL of DMEM (without FBS) and 20 μL of test compound solution at various concentrations in DMEM (without FBS) are added. The culture plate is kept in a culture incubator for 30 min (37° C., 5% CO2). The cell culture medium is discarded and the culture plate is washed with PBS, followed by adding lysis buffer (50 μL per well) and incubated at 4° C. for 20 min. The solution in the absorption plate is discarded and the plate is washed with binding buffer. To each well of the absorption plate is added binding buffer (50 μL) and lysate (40 μL) from the above culture plate; then the plate is incubated at room temperature for 2 hours. The culture medium is discarded and the plate is washed twice with binding buffer, followed by adding a solution of 1st antibody (diluted with binding buffer 1:1000, 100 μL per well) and incubated at 37° C. for 1 hr. The solution is discarded and the plate is washed twice with binding buffer. Then a solution of 2nd antibody is added (100 μL per well) and incubated at 37° C. for another hour. The medium is discarded and the plate is washed twice with binding buffer and once with PBS. To each well, 100 μL of A.B.T.S solution is added and incubated at 37° C. for 30 min. Then OD405 is analyzed on an ENVISION plate reader. This assay has a Minimum Significant Ratio (MSA) of 2-3. [Samples] All exemplified compounds and Crizotinib as the positive control [Data Analysis] Background (no cell lysate): 0.084 • Max (no test compound): 0.517 [formula] [Software] Use CBIS data analysis software to calculate IC50 values
# c-Met protein in S114 cells, sequence (P08581 25-1390): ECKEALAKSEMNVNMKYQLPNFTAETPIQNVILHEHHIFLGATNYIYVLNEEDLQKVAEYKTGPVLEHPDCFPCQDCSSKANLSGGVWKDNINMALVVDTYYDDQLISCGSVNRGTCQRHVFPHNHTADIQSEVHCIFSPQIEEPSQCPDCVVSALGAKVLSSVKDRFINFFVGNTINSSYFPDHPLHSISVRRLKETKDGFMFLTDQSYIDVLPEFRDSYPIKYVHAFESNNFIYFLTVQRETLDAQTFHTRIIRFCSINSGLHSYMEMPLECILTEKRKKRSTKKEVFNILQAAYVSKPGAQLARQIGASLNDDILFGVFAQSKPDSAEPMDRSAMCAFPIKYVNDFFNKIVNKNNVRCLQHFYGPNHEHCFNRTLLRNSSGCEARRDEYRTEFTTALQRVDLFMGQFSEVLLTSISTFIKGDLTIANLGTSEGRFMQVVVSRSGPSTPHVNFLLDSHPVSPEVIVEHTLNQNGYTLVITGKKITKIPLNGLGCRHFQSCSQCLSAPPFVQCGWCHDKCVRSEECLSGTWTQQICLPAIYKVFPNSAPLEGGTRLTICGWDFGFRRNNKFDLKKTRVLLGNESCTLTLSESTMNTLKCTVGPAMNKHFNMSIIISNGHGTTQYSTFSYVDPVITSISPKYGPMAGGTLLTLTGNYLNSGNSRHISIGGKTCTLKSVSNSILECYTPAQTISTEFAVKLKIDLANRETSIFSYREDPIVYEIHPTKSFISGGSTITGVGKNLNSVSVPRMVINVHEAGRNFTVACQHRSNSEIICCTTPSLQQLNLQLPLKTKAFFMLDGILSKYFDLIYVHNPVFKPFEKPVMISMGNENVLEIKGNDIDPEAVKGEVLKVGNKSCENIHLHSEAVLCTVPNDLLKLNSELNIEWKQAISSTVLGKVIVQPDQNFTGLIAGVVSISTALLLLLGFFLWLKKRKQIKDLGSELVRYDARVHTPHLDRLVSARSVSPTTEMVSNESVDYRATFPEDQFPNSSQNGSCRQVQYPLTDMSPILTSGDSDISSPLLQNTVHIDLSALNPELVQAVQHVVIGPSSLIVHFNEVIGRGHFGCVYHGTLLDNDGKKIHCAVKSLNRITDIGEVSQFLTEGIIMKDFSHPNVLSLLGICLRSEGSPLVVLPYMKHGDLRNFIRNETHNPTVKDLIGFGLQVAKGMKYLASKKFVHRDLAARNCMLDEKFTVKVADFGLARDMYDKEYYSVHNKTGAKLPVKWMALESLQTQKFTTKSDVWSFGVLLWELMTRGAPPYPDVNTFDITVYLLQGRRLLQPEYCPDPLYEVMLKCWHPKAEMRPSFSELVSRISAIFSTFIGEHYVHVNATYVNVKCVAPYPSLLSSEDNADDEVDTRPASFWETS
# c-Met kinase (1038-1346AA), sequence (P08581 1038-1346): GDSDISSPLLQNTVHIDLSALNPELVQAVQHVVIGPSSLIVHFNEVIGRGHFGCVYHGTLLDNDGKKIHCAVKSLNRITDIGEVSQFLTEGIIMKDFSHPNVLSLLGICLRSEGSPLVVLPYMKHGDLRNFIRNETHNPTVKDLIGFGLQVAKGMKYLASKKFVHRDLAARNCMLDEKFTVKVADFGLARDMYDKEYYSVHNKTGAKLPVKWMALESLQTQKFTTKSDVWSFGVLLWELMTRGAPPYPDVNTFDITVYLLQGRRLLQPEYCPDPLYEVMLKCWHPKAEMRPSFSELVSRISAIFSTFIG
IC50 [1],IC50 [2],Compound
109 nM,37.7 nM,Cc1cncc(-c2ccc3nnc(C(F)(F)c4cc5cn(C)nc5cc4F)n3n2)c1 [Example 32]
38 nM,22 nM,Cn1cc2cc(C(F)(F)c3nnc4ncc(-c5cnn(C6CC6)c5)cn34)c(F)cc2n1 [Example 47]
82.9 nM,44.1 nM,CC(C)n1cc(-c2ccc3nnc(C(F)(F)c4cc5cn(C)nc5cc4F)n3n2)cn1 [Example 38]
4130 nM,–,O=C(NCCN1CCOCC1)n1cc2cc(C(F)(F)c3nnc4ccc(-c5cnn(C6CC6)c5)nn34)c(F)cc2n1 [Example 51]
77.6 nM,55.6 nM,Cn1cc2c(F)c(C(F)(F)c3nnc4ccc(-c5ccc(S(N)(=O)=O)c(F)c5)nn34)ccc2n1 [Example 17]
182 nM,190 nM,Cn1cc2c(F)c(C(F)(F)c3nnc4ccc(-c5ccc(C#N)nc5)nn34)ccc2n1 [Example 13]
136 nM,406 nM,CNS(=O)(=O)c1ccc(-c2ccc3nnc(C(F)(F)c4cc5cn(C)nc5cc4F)n3n2)cc1F [Example 42]
127 nM,348 nM,Cn1cc2cc(C(F)(F)c3nnc4ccc(-c5cnn(CC6COCO6)c5)nn34)c(F)cc2n1 (stereo not shown) [Example 41]
65 nM,88.1 nM,Cn1cc2cc(C(F)(F)c3nnc4ccc(-c5ccc(C#N)nc5)nn34)c(F)cc2n1 [Example 35]
38 nM,65 nM,Nc1nc2cc(F)c(Cc3nnc4ccc(-c5cnn(C6CC6)c5)nn34)cc2s1 [Example 49]
20.7 nM,15.5 nM,CCNC(=O)c1ccc(-c2ccc3nnc(C(F)(F)c4cc5cn(C)nc5cc4F)n3n2)cc1F [Example 22]
76.4 nM,49.6 nM,Cn1cc2c(F)c(C(F)(F)c3nnc4ccc(-c5ccc(NC(=O)C6CC6)c(F)c5)nn34)ccc2n1 [Example 7]
–,85 nM,Cc1cncc(-c2ccc3nnc(C(F)(F)c4ccc5nn(C)cc5c4F)n3n2)c1 [Example 9]
–,42 nM,Cn1cc2c(F)c(C(F)(F)c3nnc4ccc(-c5cncc(Cl)c5)nn34)ccc2n1 [Example 11]
380 nM,383 nM,COCCn1cc(-c2ccc3nnc(C(F)(F)c4ccc5nn(C)cc5c4F)n3n2)cn1 [Example 15]
31.6 nM,7.8 nM,Cn1cc2cc(C(F)(F)c3nnc4ccc(-c5cnn(C6CC6)c5)nn34)c(F)cc2n1 [Example 44]
29.5 nM,7.9 nM,Cn1cc2cc(C(F)(F)c3nnc4ccc(-c5ccc(NC(=O)C6CC6)c(F)c5)nn34)c(F)cc2n1 [Example 29]
357 nM,299 nM,Cn1cc2cc(C(F)(F)c3nnc4ccc(-c5ccc(C(=O)N6CCOCC6)c(F)c5)nn34)c(F)cc2n1 [Example 26]
69.3 nM,71.5 nM,CCNC(=O)c1ccc(-c2ccc3nnc(C(F)(F)c4ccc5nn(C)cc5c4F)n3n2)cc1F [Example 3]
125 nM,52.7 nM,Cn1cc2cc(C(F)(F)c3nnc4ccc(-c5ccc(C(=O)N6CCCC6)c(F)c5)nn34)c(F)cc2n1 [Example 25]
81.4 nM,60.6 nM,CNC(=O)c1ccc(-c2ccc3nnc(C(F)(F)c4cc5cn(C)nc5cc4F)n3n2)cn1 [Example 31]
159 nM,139 nM,Cn1cc2cc(C(F)(F)c3nnc4ccc(-c5cnn(C6CC6)c5)cn34)c(F)cc2n1 [Example 46]
–,142 nM,Cn1cc2c(F)c(C(F)(F)c3nnc4ccc(-c5cncc(F)c5)nn34)ccc2n1 [Example 10]
43.4 nM,14.9 nM,Cn1cc2cc(C(F)(F)c3nnc4ccc(-c5ccc(C(=O)NC6CC6)c(F)c5)nn34)c(F)cc2n1 [Example 24]

IC50 [1],IC50 [2],Compound
51.8 nM,45 nM,CNC(=O)c1cc(-c2ccc3nnc(C(F)(F)c4cc5cn(C)nc5cc4F)n3n2)ccn1 [Example 30]
83.9 nM,2.6 nM,CC(C)NC(=O)c1ccc(-c2ccc3nnc(C(F)(F)c4ccc5nn(C)cc5c4F)n3n2)cc1F [Example 4]
45.4 nM,23.2 nM,Cn1cc2c(F)c(C(F)(F)c3nnc4ccc(-c5ccc(C(=O)NC6CC6)c(F)c5)nn34)ccc2n1 [Example 5]
180 nM,262 nM,CN(C)C(=O)c1ccc(-c2ccc3nnc(C(F)(F)c4cc5cn(C)nc5cc4F)n3n2)cc1F [Example 21]
137 nM,158 nM,CC(C)NC(=O)c1ccc(-c2ccc3nnc(C(F)(F)c4cc5cn(C)nc5cc4F)n3n2)c(F)c1 [Example 20]
102 nM,22.5 nM,CC(C)n1cc(-c2ccc3nnc(C(F)(F)c4ccc5nn(C)cc5c4F)n3n2)cn1 [Example 14]
568 nM,–,Nc1nc2ccc(C(F)(F)c3nnc4ccc(-c5cnn(C6CC6)c5)nn34)cc2[nH]1 [Example 52]
247 nM,179 nM,Cn1cc2c(F)c(C(F)(F)c3nnc4ccc(-c5cnn(CC6COCO6)c5)nn34)ccc2n1 (stereo not shown) [Example 16]
1440 nM,527 nM,Fc1cc2n[nH]cc2cc1C(F)(F)c1nnc2ccc(-c3cnn(C4CC4)c3)nn12 [Example 50]
–,122 nM,CNC(=O)c1ccc(-c2ccc3nnc(C(F)(F)c4ccc5nn(C)cc5c4F)n3n2)cn1 [Example 8]
113 nM,34 nM,Cc1cc(-c2ccc3nnc(C(F)(F)c4cc5cn(C)nc5cc4F)n3n2)ccn1 [Example 36]
79.7 nM,204 nM,Cn1cc2cc(C(F)(F)c3nnc4ccc(-c5cnn(C6CCOC6)c5)nn34)c(F)cc2n1 (stereo not shown) [Example 39]
53.2 nM,57.6 nM,Cn1cc2cc(C(F)(F)c3nnc4ccc(-c5cncc(Cl)c5)nn34)c(F)cc2n1 [Example 34]
274 nM,270 nM,Cn1cc2cc(C(F)(F)C3(Cl)NN=C4C=CC(c5cnn(C6CC6)c5)=CN43)c(F)cc2n1 (stereo not shown) [Example 45]
242 nM,210 nM,Cn1cc2cc(C(F)(F)c3nnc4ccc(-c5cncc(F)c5)nn34)c(F)cc2n1 [Example 33]
90.8 nM,206 nM,CNC(=O)c1ccc(-c2ccc3nnc(C(F)(F)c4cc5cn(C)nc5cc4F)n3n2)c(F)c1 [Example 18]
25.6 nM,5.7 nM,CNC(=O)c1ccc(-c2ccc3nnc(C(F)(F)c4cc5cn(C)nc5cc4F)n3n2)cc1F [Example 19]
27.7 nM,14.2 nM,CNC(=O)c1c(F)cc(-c2ccc3nnc(C(F)(F)c4cc5cn(C)nc5cc4F)n3n2)cc1F [Example 28]
48.8 nM,3.9 nM,"CNC(=O)c1ccc(-c2ccc3nnc(C(F)(F)c4ccc5nn(C)cc5c4F)n3n2)cc1F [Example 1, 4-(3-(Difluoro(4-fluoro-2-methyl-2H-indazol-5-yl)methyl)-[1,2,4]triazolo[4,3-b]pyridazin-6-yl)-2-fluoro-N-methylbenzamide]"
148 nM,324 nM,CN1CCN(C(=O)c2ccc(-c3ccc4nnc(C(F)(F)c5cc6cn(C)nc6cc5F)n4n3)cc2F)CC1 [Example 27]
23.3 nM,35.2 nM,Cn1cc2cc(C(F)(F)c3nnc4ccc(-c5cc(F)c6c(c5)CNC6=O)nn34)c(F)cc2n1 [Example 43]
41.6 nM,1.1 nM,CC(C)NC(=O)c1ccc(-c2ccc3nnc(C(F)(F)c4cc5cn(C)nc5cc4F)n3n2)cc1F [Example 23]
50.7 nM,13.7 nM,Cn1cc(-c2ccc3nnc(C(F)(F)c4cc5cn(C)nc5cc4F)n3n2)cn1 [Example 37]
